pIC50: −log10 of the molar value.
Biological target: T1, Tyrosine-protein kinase JAK3 (Homo sapiens, UniProt P52333)
T1 sequence (P52333 whole entry): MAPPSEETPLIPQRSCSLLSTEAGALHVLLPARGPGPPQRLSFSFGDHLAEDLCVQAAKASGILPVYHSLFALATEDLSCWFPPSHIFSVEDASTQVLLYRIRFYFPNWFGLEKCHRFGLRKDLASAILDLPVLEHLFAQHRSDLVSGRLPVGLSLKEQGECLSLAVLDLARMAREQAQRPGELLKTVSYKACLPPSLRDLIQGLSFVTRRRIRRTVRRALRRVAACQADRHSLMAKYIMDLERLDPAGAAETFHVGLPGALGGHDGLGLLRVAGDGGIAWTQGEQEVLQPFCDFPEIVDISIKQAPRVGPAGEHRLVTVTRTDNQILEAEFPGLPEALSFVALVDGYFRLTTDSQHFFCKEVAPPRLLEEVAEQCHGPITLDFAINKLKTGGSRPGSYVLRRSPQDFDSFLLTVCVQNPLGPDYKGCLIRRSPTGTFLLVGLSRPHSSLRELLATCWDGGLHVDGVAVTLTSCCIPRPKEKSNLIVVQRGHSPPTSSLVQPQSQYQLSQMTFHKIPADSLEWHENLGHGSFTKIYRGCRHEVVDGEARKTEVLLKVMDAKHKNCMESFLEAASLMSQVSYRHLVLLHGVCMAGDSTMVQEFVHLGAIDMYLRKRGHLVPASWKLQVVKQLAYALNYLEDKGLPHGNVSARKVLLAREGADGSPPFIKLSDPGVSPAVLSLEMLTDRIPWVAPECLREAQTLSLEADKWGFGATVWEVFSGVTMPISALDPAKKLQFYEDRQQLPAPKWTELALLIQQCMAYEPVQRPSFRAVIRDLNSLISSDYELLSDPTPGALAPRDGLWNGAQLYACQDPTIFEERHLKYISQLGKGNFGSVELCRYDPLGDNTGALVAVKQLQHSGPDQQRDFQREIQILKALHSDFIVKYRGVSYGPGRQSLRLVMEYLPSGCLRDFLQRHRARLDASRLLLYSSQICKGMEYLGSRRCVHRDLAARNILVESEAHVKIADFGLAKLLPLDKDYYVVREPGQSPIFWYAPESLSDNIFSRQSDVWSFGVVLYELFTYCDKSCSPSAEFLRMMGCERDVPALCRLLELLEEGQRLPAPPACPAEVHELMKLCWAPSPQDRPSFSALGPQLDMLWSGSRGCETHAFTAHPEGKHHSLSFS
Assay: JAK3 Inhibition Assay
Conditions: pH 7.5; 22 °C
Experimental: An ELISA assay was used to determine the ability of inhibitor to inhibit JAK3 […] activity. The compounds were incubated with enzyme, 10 uM ATP, and biotinylated peptide substrate. Phosphorylated tyrosine was then detected by sequential incubation with anti-phosphotyrosine antibody.

## O=C1c2ccccc2-c2n[nH]c3cccc1c23
  pIC50: 6.02

— BindingDB's records for doi:10.1021/jm800662z (Johnson & Johnson Pharmaceutical, 2008)
